The source of these data is PubChem BioAssay (NCI).

By TGI is commonly meant the concentration giving total growth inhibition.

Structures are written as SMILES.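 Exposure lasted 48 hours, with cells grown in 96-well plates and compounds tested at five concentrations. TGI: concentration producing complete growth inhibition.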 Where only a bound is given, the exact number is not on record here.

Holding throughout (experiment): DTP human tumour cell line panel, 48 h
Assay [1] concerns IGROV1 ovarian.
Assay [2] relates to NCI-H522 lung.
The test system of assay [3] is MALME-3M melanoma.

For `Cc1ccc(NC(=O)c2cc(S(=O)(=O)N3CCNNC3=O)c(S)cc2Cl)cc1`, the TGI in assay [1], in assay [2] and in assay [3] was over 100 µM each time.
As for `COc1cc(/C=C2\N=C(c3ccccc3)N(/N=C/c3cc4cc(C)ccc4nc3Cl)C2=O)ccc1O`, in assay [1], the TGI was over 100 µM.
Turning to `Brc1ccc(C2(N3CCCCC3)CCCCC2)s1`, the TGI was over 100 µM in assay [1], over 100 µM in assay [2] and 94 µM in assay [3].
Regarding `COC(=O)C1CCCCCCCCCCC12SCCCS2` (stereo not given), the TGI amounted to 39.1 µM in assay [1], 43.5 µM in assay [2] and 37.6 µM in assay [3].
On to `COC(=O)/C=C1/OC(c2ccccc2)=CC1=O`, for which the results for the TGI in assay [1], in assay [2] and in assay [3] were 33.9 µM, 39.3 µM and 34.9 µM, respectively.
Turning to `COc1ccc(N=C/C=C/C(=C/COC(C)=O)OC(C)=O)cc1`, the concentration for total growth inhibition (TGI) is 45.1 µM in assay [1], 30.4 µM in assay [2] and 69.5 µM in assay [3].
For `C[C@H]1ON2CCC[C@@H]2[C@@H]1C(=O)N1C2CC3CCC2(CS1(=O)=O)C3(C)C` (stereo not given in full), in that order: over 100 µM, over 100 µM and over 100 µM.
`Nc1nc(Cl)cc(NCC2(CO)CC(O)C2)n1` (stereo not given): the TGI in assay [1], in assay [2] and in assay [3] was over 100 µM in each case.
As for `COc1cccc2c(=O)c3c(O)c4cc(N(C)C)ccc4c(OC(C)=O)c3oc12`, the TGI in assay [3] came out at 8.96 µM. That is a single-digit micromolar value.
For the molecule `CCCNc1c(Cl)cc(Cl)c2[nH]c3ccccc3c(=O)c12`, the TGI is over 100 µM in assay [1], over 100 µM in assay [2] and 75.3 µM in assay [3].
Take `C/C(O)=C/c1nc2sc(C)c(C)c2c(=O)s1`: the total growth inhibition concentration (TGI) in assay [1] and in assay [3] was over 100 µM each time.
Consider `CC(=O)NC1C(OCc2ccccc2)OC(CO)C(O)C1OC(C)C(=O)NC(C(=O)NC(CCC(=O)Nc1ccc2c(c1)CN1C(=O)c3ccccc3C1=N2)C(N)=O)C(C)C` (stereo not given), for which the TGI in assay [1] and in assay [3] was over 100 µM each time.
On to `CN(N=O)C(N)=NC(=O)c1ccccc1`, for which the TGI in assay [1], in assay [2] and in assay [3] was over 100 µM each time.
Turning to `O=C(CCl)Nc1ccc(-c2nc3ccccc3s2)cc1`, the concentration for total growth inhibition (TGI) came to 3.3 µM in assay [1], 3.64 µM in assay [2] and 4.13 µM in assay [3].
Consider `OCC1OC(NC(=S)NCSCCC(F)(F)C(F)(F)C(F)(F)C(F)(F)C(F)(F)C(F)(F)F)C(O)C(O)C1O` (stereo not given), for which the TGI in assay [1] and in assay [3] was over 100 µM throughout.
`O=C1C(c2c(O)n(-c3ccccc3)c3ccccc23)=Nc2ccccc21`: the TGI in assay [1], in assay [2] and in assay [3] was over 100 µM each time.
Consider `Cc1[nH]c2ncn(N)c(=N)c2c1Cc1ccccc1`, for which the TGI in assay [1], in assay [2] and in assay [3] was over 100 µM in each case.
`c1ccc2c(-c3ccnc(-c4c[nH]c5ccccc45)n3)c[nH]c2c1`: the TGI in assay [1] came to 14.7 µM. This counts as double-digit micromolar.
`O=C1C2=Cc3ccccc3CCN2c2ccc([N+](=O)[O-])cc21`: the TGI in assay [1], in assay [2] and in assay [3] was over 100 µM throughout.
Turning to `COC(=O)[C@H]1[C@H](OC(=O)[C@@H](OC)c2ccccc2)ON2CC[C@@H](OC(=O)c3ccccc3)[C@H]12`, the total growth inhibition concentration (TGI) in assay [1] was over 100 µM; in assay [2], 7.59 µM; in assay [3] it was over 100 µM.
On to `C=C1C(=O)OC2C3C(=C)[C@@H](OC(C)=O)CC3C(C)=CC(OC(=O)C(C)(O)C(C)OC(C)=O)[C@@H]12` (stereo not given in full), for which the figures for the TGI in assay [1], in assay [2] and in assay [3] were 21.3 µM, 3.21 µM and 20.2 µM, respectively.
Regarding `Nc1nc(Cl)c(N)c(NCC2(CO)CC(O)C2)n1` (stereo not given), the TGI in assay [1], in assay [2] and in assay [3] was over 100 µM each time.
For the molecule `CCC/C(Cl)=N/OC(=O)Nc1cccc(F)c1`, the results for the concentration for total growth inhibition (TGI) in assay [1], in assay [2] and in assay [3] were 27.5 µM, 1.05 µM and 3.11 µM, respectively.
Consider `O=c1[nH]nc(Cc2ccc(Cl)cc2)n1Nc1ccccc1`, for which the TGI in assay [1] and in assay [3] was over 100 µM each time.
As to `COC(=O)C(NC(=O)C12CCC(C)(C(=O)O1)C2(C)C)c1cc(C(C)(C)C)c(O)c(C(C)(C)C)c1` (stereo not given), the TGI in assay [1], in assay [2] and in assay [3] was over 100 µM throughout.
For `CCOP(=O)(OCC)OC1CC(n2cnc3c(N(CC)CC)ncnc32)OC1CO[Si](C)(C)C(C)(C)C` (stereo not given), the values for the TGI in assay [1], in assay [2] and in assay [3] were 32.3 µM, 27.6 µM and 41.4 µM, respectively.
Regarding `Nc1nc(SCC(=O)c2ccccc2)nc2nc3c(c(-c4ccccc4)c12)CCCC3`, the concentration for total growth inhibition (TGI) in assay [2] and in assay [3] was over 100 µM in each case.
With `CC1(C)O[C@@H]([C@@H](O)[C@H](O)C2SCCCS2)[C@@H](CO)O1`, the TGI in assay [1], in assay [2] and in assay [3] was over 100 µM each time.
As to `CCOC(=O)CC(=O)Nc1c(C(=O)OCC)sc2nc(SC)nc(Nc3ccc(OC)c(OC)c3)c12`, the figures for the TGI in assay [1], in assay [2] and in assay [3] were over 100 µM, 34.1 µM and over 100 µM, respectively.
Consider `COc1ccc2c(c1)CC[C@@H]1C2CC[C@]2(C)C(=O)N(C)C(=O)CC12` (stereo not given in full), for which the concentration for total growth inhibition (TGI) in assay [1], in assay [2] and in assay [3] was over 100 µM each time.
For `CN(C)c1ccc(C=Nc2ccc(-c3nc4ccccc4o3)cc2)cc1`, the TGI in assay [1], in assay [2] and in assay [3] was over 100 µM in each case.
Turning to `CC1=NN(c2ccccc2Cl)C2(C1)SCC(=O)N2c1nc2ccccc2s1` (stereo not given), the TGI in assay [1], in assay [2] and in assay [3] was over 100 µM throughout.
For the molecule `O=C1NC(c2ccccc2)C1N(Cc1ccccc1)Cc1ccccc1` (stereo not given), the total growth inhibition concentration (TGI) in assay [1], in assay [2] and in assay [3] was over 100 µM throughout.
As for `COc1ccc(-n2c(-c3ccccc3)cc(-c3cccs3)c2-c2cccs2)cc1`, the TGI in assay [1] and in assay [2] was over 100 µM throughout.
